Reference: PubChem BioAssay AID2060603 (Molecular Pharmacology Branch, DTP, NCI, 2025)

Test system: 422866-222-R5-J1-PDC spheroid viability
Test: Anticancer human tumor 422866-222-R5-J1-PDC patient-derived pancreatic adenocarcinoma cell line growth inhibition [CLK]
Conditions: spheroids with HUVEC and MSC; for IC50: curve of first compound; for viability, T/C: stronger effect = lower value
In short: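 Multi-cell-type spheroids combined patient-derived tumor cells with HUVEC endothelial cells and human mesenchymal stem cells. Paired agents were dosed in half-log steps down from about clinical Cmax, or from 10 microM where Cmax was unknown.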
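Also: spheroids exposed to agents for seven days before readout.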

`CC(C)CC(NC(=O)C(Cc1ccccc1)NC(=O)c1cnccn1)B(O)O` (configuration not stated) + CNC(=O)c1ccc(Nc2nc(OC3CCCC3)c3c(-c4ccc5nc(C)oc5c4)c[nH]c3n2)c(OC)c1 was tested. Which IC50 (second compound 0.0316 µM) did it give?
Its IC50 is 5.65 nM.

What about the IC50 (second compound 0.1 µM) of the same molecule?
Its IC50 is 5.52 nM.

And the IC50 (second compound 0.316 µM)?
The IC50 was 4.54 nM.

What about the IC50 (second compound 1 µM) of the same molecule?
The IC50 was 4.19 nM.

What about the IC50 (second compound 3.16 µM) of the same molecule?
The IC50 was 4.29 nM.

And the IC50 (second compound 10 µM)?
Its IC50 is 4.12 nM.

What about the viability, T/C (second compound 0.0316 µM, first compound 0.000949 µM) of the same molecule?
Its viability, T/C is 94%.

And the viability, T/C (second compound 0.0316 µM, first compound 0.003 µM)?
Its viability, T/C is 88.6%.

And the viability, T/C (second compound 0.0316 µM, first compound 0.00949 µM)?
Its viability, T/C is 18.5%.

And the viability, T/C (second compound 0.0316 µM, first compound 0.03 µM)?
Its viability, T/C is 2.14%.

And the viability, T/C (second compound 0.0316 µM, first compound 0.0949 µM)?
Its viability, T/C is 0.75%.

What about the viability, T/C (second compound 0.0316 µM, first compound 0.3 µM) of the same molecule?
Its viability, T/C is 0.67%.

What about the viability, T/C (second compound 0.1 µM, first compound 0.000949 µM) of the same molecule?
Its viability, T/C is 115%.

And the viability, T/C (second compound 0.1 µM, first compound 0.003 µM)?
Its viability, T/C is 90.8%.

And the viability, T/C (second compound 0.1 µM, first compound 0.00949 µM)?
The viability, T/C was 13.8%.

And the viability, T/C (second compound 0.1 µM, first compound 0.03 µM)?
Its viability, T/C is 1.87%.

And the viability, T/C (second compound 0.1 µM, first compound 0.0949 µM)?
The viability, T/C was 1.7%.

And the viability, T/C (second compound 0.1 µM, first compound 0.3 µM)?
The viability, T/C was 1.33%.

What about the viability, T/C (second compound 0.316 µM, first compound 0.000949 µM) of the same molecule?
The viability, T/C was 108%.

And the viability, T/C (second compound 0.316 µM, first compound 0.003 µM)?
The viability, T/C was 70.2%.

What about the viability, T/C (second compound 0.316 µM, first compound 0.00949 µM) of the same molecule?
The viability, T/C was 13.9%.

What about the viability, T/C (second compound 0.316 µM, first compound 0.03 µM) of the same molecule?
The viability, T/C was 1.54%.

What about the viability, T/C (second compound 0.316 µM, first compound 0.0949 µM) of the same molecule?
The viability, T/C was 0.87%.

What about the viability, T/C (second compound 0.316 µM, first compound 0.3 µM) of the same molecule?
Its viability, T/C is 1.27%.

What about the viability, T/C (second compound 1 µM, first compound 0.000949 µM) of the same molecule?
Its viability, T/C is 96.5%.

What about the viability, T/C (second compound 1 µM, first compound 0.003 µM) of the same molecule?
Its viability, T/C is 67.8%.

What about the viability, T/C (second compound 1 µM, first compound 0.00949 µM) of the same molecule?
The viability, T/C was 6.77%.

And the viability, T/C (second compound 1 µM, first compound 0.03 µM)?
The viability, T/C was 1.53%.

What about the viability, T/C (second compound 1 µM, first compound 0.0949 µM) of the same molecule?
Its viability, T/C is 3.06%.

And the viability, T/C (second compound 1 µM, first compound 0.3 µM)?
Its viability, T/C is 2.68%.

What about the viability, T/C (second compound 3.16 µM, first compound 0.000949 µM) of the same molecule?
The viability, T/C was 86.8%.

What about the viability, T/C (second compound 3.16 µM, first compound 0.003 µM) of the same molecule?
The viability, T/C was 69.7%.

And the viability, T/C (second compound 3.16 µM, first compound 0.00949 µM)?
Its viability, T/C is 6.4%.

And the viability, T/C (second compound 3.16 µM, first compound 0.03 µM)?
Its viability, T/C is 1.59%.

What about the viability, T/C (second compound 3.16 µM, first compound 0.0949 µM) of the same molecule?
The viability, T/C was 1.4%.

What about the viability, T/C (second compound 3.16 µM, first compound 0.3 µM) of the same molecule?
The viability, T/C was 0.99%.

What about the viability, T/C (second compound 10 µM, first compound 0.000949 µM) of the same molecule?
The viability, T/C was 84.8%.

What about the viability, T/C (second compound 10 µM, first compound 0.003 µM) of the same molecule?
Its viability, T/C is 66.5%.

And the viability, T/C (second compound 10 µM, first compound 0.00949 µM)?
The viability, T/C was 6.65%.

What about the viability, T/C (second compound 10 µM, first compound 0.03 µM) of the same molecule?
The viability, T/C was 1.39%.

And the viability, T/C (second compound 10 µM, first compound 0.0949 µM)?
The viability, T/C was 1.44%.

What about the viability, T/C (second compound 10 µM, first compound 0.3 µM) of the same molecule?
The viability, T/C was 1.32%.
